According to patent US9550802B2, “Anti-inflammatory macrolides” (priority 2012, dated 2017):

How the values were obtained:
[1] = Maximum solubility determination of organic salts in saline; assay type: physicochemical; conditions: for Visual Score: score 0 to 4
Experimental: The mixtures were given a visual score depending on the presence of precipitate in the mixture (Score ranges from 0 to 4, with 0 showing undissolved solid precipiate and 4 being fully-dissolved). Solubility of the salts was tested in 10 mM, 100 mM, 500 mM and 1M.

[2] = Titration of macrolide with organic acid in saline; assay type: physicochemical; conditions: for End conc. macrolide: after titration; for Vol. Added (mL) Score = 4: acid solution 10 mg/mL in saline added until fully dissolved
Experimental: After each addition, the mixture or solution was placed in the ultrasonic bath for 10 minutes followed by agitation for an additional 10 minutes. The mixtures were given a visual score depending on the presence of precipitate in the mixture (0 to 4, 0 being undissolved and 4 being fully-dissolved) and the pH of the supernatant fluid was measured.

[3] = test system: CF human primary airway epithelial cells (CF hAEC); assay: Stimulation of chloride release (Cl efflux, SPQ fluorescence) in cystic fibrosis cells; assay type: cell-based; conditions: 10 μM; CF hAEC or non-CF (S9) cells
Experimental: CF human primary airway epithelial cells (CF hAEC) on non-CF (S9) were cultured in the presence of compound 1 or azithromycin 10 μM. Cl efflux was monitored by fluorescence of [6-methoxy-N-(3-sulfopronyl)-quinolinium (SPQ).

[4] = macrolide (not named) + acid equivalent of organic acid in saline, 100 mM
[5] = macrolide (not named) + acid equivalent of organic acid in saline, 500 mM
[6] = macrolide (not named) + acid equivalent of organic acid in saline, 1M

Row | Compound | pH ([1]; macrolide (not named) + acid equivalent of organic acid in saline (0.9% aq. NaCl), 10 mM) | Visual Score ([1]; macrolide (not named) + acid equivalent of organic acid in saline, 10 mM) | pH [1, 4] | Visual Score [1, 4] | pH [1, 5] | Visual Score [1, 5] | pH [1, 6] | Visual Score [1, 6] | Amt acid added to dissolve ([2]; 10 mM COMPOUND 1 in saline) | Amt corr. to mol eq. ([2]; 10 mM COMPOUND 1 in saline) | mol. eq. acid (minimum mole equivalence of acid needed to dissolve) ([2]; 10 mM COMPOUND 1 in saline) | End conc. macrolide ([2]; COMPOUND 1 in saline) | End conc. macrolide ([2]; azithromycin in saline) | Amt acid added to dissolve ([2]; azithromycin, 10 mM in saline) | Amt corr. to mol eq. ([2]; azithromycin, 10 mM in saline) | mol. eq. acid (minimum mole equivalence of acid needed to dissolve) ([2]; azithromycin, 10 mM in saline) | Vol. Added (mL) Score = 4 ([2]; 10 mM COMPOUND 1 in saline) | Vol. Added (mL) Score = 4 ([2]; azithromycin, 10 mM in saline) | Cl efflux as determined by fluorescence change (SPQ) [3]
1 | O=C(O)CCCCCCC(=O)O [subaric acid] | 6.8 | 4 | 5.5 | 4 | 8.0 | 4 | 10.0 | 2 | 8.30 mg | 8.30 mg | 1.05 mol. eq. | 10.0 mM | 10.0 mM | 6.70 mg | 6.70 mg | 0.70 mol. eq. |  |  | 
2 | O=C(O)CC(=O)C(=O)O [oxaloacetatic acid] |  |  |  |  |  |  |  |  | 4.00 mg | 4.00 mg | 0.64 mol. eq. | 9.2 mM | 8.7 mM | 8.00 mg | 8.00 mg | 1.10 mol. eq. | 0.40 mL | 0.80 mL | 
3 | CC[C@H]1OC(=O)[C@H](C)[C@@H](O[C@H]2C[C@@](C)(OC)[C@@H](O)[C@H](C)O2)[C@H](C)[C@@H](O[C@@H]2O[C@H](C)C[C@H](N(C)C)[C@H]2O)[C@](C)(O)C[C@@H](C)CN(C)[C@H](C)[C@@H](O)[C@]1(C)O [azithromycin] |  |  |  |  |  |  |  |  |  |  |  |  |  |  |  |  |  |  | stimulate Cl efflux
